From publication PMC7933286, “Structure-guided selection of puromycin N-acetyltransferase mutants with enhanced selection stringency for deriving mammalian cell lines expressing recombinant proteins” (Scientific Reports, 2021)

Biological target: T1, PAC (puromycin N-acetyltransferase) (Streptomyces alboniger, UniProt P13249)
T1 construct: native full-length pac amplified from pBABE-puro, N-terminal His6-tag (pET43a), expressed in E. coli BL21(DE3); IMAC and Superdex 75; tag removal not mentioned
T1 sequence (P13249 whole entry): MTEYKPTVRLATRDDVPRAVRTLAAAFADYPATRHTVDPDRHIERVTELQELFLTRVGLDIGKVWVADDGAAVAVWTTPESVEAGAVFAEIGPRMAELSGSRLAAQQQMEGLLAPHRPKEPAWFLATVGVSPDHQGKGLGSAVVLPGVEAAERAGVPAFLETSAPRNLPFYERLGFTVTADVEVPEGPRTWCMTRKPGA
Experiment: X-ray crystal structure
Assay type: binding

[1] = crystals grown with 2 mM AcCoA and 2 mM puromycin, pH 8.26, trapped reaction product

Row | SMILES | X-ray crystal structure [1] | X-ray crystal structure (crystals with 0.1 mM AcCoA, pH 9.0, acetyl donor site)
1 | CC(C)(COP(=O)(O)OP(=O)(O)OC[C@H]1O[C@@H](n2cnc3c(N)ncnc32)[C@H](O)[C@@H]1OP(=O)(O)O)[C@@H](O)C(=O)NCCC(=O)NCCS [CoA] | The ligands modelled into this structure were CoA and N-acetylated puromycin | –
2 | COc1ccc(C[C@H](NC(C)=O)C(=O)N[C@H]2[C@@H](O)[C@H](n3cnc4c(N(C)C)ncnc43)O[C@@H]2CO)cc1 [N-acetylated puromycin] | The ligands modelled into this structure were CoA and N-acetylated puromycin | –
3 | CC(=O)SCCNC(=O)CCNC(=O)[C@H](O)C(C)(C)COP(=O)(O)OP(=O)(O)OC[C@H]1O[C@@H](n2cnc3c(N)ncnc32)[C@H](O)[C@@H]1OP(=O)(O)O [acetyl-CoA] | – | allowed the initial structure to be solved with AcCoA bound
